The target in this experiment is T1, human recombinant USP30 (Homo sapiens, UniProt Q70CQ3).
T1 construct: purchased Boston Biochem E-582
T1 sequence (Q70CQ3 1-517): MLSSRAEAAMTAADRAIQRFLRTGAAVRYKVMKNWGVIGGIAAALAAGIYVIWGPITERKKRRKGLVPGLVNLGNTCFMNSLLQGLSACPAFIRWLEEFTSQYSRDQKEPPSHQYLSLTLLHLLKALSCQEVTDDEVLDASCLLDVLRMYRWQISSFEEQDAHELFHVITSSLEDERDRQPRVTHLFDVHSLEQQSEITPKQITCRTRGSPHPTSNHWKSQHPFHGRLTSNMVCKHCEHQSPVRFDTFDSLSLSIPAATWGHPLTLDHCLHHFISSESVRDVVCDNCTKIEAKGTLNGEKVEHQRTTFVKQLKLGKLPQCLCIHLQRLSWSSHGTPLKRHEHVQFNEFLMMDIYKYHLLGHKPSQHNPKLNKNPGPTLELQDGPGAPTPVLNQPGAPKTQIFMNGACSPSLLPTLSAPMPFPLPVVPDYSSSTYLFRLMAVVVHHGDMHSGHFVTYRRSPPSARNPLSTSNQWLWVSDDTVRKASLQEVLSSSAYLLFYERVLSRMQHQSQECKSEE
Put plainly: Ubiquitin-Rhodamine 110 Assay for USP30 Activity (USP30 Inhibitor Biochemical Assay). As to conditions: 0.2 nM USP30, 25 nM Ub-Rh110, 30 min preincubation, 30 min at room temperature; read-out: USP30 potency range (USP30 biochemical IC50 assay, IC50 ranges). As for the experimental part: Example A: Biochemical Assay: Ubiquitin-Rhodamine 110 Assay for USP30 Activity (USP30 Inhibitor Biochemical Assay)
The assay was performed in a final volume of 9 μL in assay buffer containing 20 mM Tris-HCl (pH 8.0, (1M Tris-HCl, pH 8.0 solution; Corning 46-031-CM)), 1 mM GSH (L-glutathione reduced, Sigma-Aldrich, G4251-100G), 0.03% BGG (0.22 μM filtered, Sigma, G7516-25G), and 0.01% Triton X-100 (Sigma, T9284-10L). Nanoliter quantities of 10-point, 3-fold serial dilution in DMSO were pre-dispensed into 1536 assay plates (Corning, #3724BC) for a final test concentration of 25 μM to 1.3 nM, top to lowest dose, respectively. Concentration and incubation times were optimized for the maximal signal-to-background while maintaining initial velocity conditions at a fixed substrate concentration. The final concentration of USP30 (human recombinant USP30, Boston Biochem, cat. # E-582) in the assay was 0.2 nM. […] 3 μL of 2×USP30 was added to assay plates (pre-stamped with compound), preincubated for 30 minutes and then treated with 3 μL of 2×Ub-Rh110. Plates were incubated for 30 minutes at room temperature before addition of 3 μL of stop solution (final concentration of 10 mM citric acid (Sigma, 251275-500G)). Fluorescence was read on the Envision (excitation at 485 nm and emission at 535 nm; Perkin Elmer) or on the PheraSTAR (excitation at 485 nm and emission at 535 nm; BMG Labtech).
For all assay formats data were reported as percent inhibition compared with control wells based on the following equation: % inh=1−((FLU−AveLow)/(AveHigh−AveLow)) where FLU=measured Fluorescence, AveLow=average Fluorescence of no enzyme control (n=16), and AveHigh=average Fluorescence of DMSO control (n=16). IC50 values were determined by curve fitting of the standard 4 parameter logistic fitting algorithm included in the Activity Base software package: IDBS XE Designer Model205. Data is fitted using the Levenburg Marquardt algorithm.

As for `C[C@H]1CCCC[C@@H]1c1cnc(NC(=O)[C@H]2C[C@H](NC#N)C2)s1` [Compound 1-23, (1r,3r)-3-(cyanoamino)-N-{5-[(1S,2S)-2-methylcyclohexyl]-1,3-thiazol-2-yl}cyclobutane-1-carboxamide], the IC50 was under 100 nM.

On to `C[C@@H]1CCCC[C@H]1c1cnc(NC(=O)[C@H]2C[C@H](NC#N)C2)s1` [Compound 1-24, (1r,3r)-3-(cyanoamino)-N-{5-[(1R,2R)-2-methylcyclohexyl]-1,3-thiazol-2-yl}cyclobutane-1-carboxamide], for which the IC50 was under 100 nM.

For `N#CN[C@H]1C[C@H](C(=O)Nc2nc(C3CC3)c(C3CCCCC3)s2)C1` [Compound 1-25, (1r,3r)-3-(cyanoamino)-N-(5-cyclohexyl-4-cyclopropyl-1,3-thiazol-2-yl)cyclobutane-1-carboxamide], the half-maximal inhibitory concentration (IC50) is under 100 nM.

As to `N#CN[C@H]1C[C@H](C(=O)Nc2nc(-c3cnn(C4CC4)c3)c(C3CCCCC3)s2)C1` [Compound 1-26, (1r,3r)-3-(cyanoamino)-N-[5-cyclohexyl-4-(1-cyclopropyl-1H-pyrazol-4-yl)-1,3-thiazol-2-yl]cyclobutane-1-carboxamide], the IC50 is under 100 nM.

`N#CN[C@H]1C[C@H](C(=O)Nc2cc(C(F)(F)F)ccn2)C1` [Compound 1-27, (1r,3r)-3-(cyanoamino)-N-[4-(trifluoro-methyl)pyridin-2-yl]cyclobutane-1-carboxamide]: the IC50 lay in the range of 100 to 1000 nM.

Turning to `N#CN[C@H]1C[C@H](C(=O)Nc2ncc([C@@H]3CCCCO3)s2)C1` [Compound 1-28, (1r,3r)-3-(cyanoamino)-N-{5-[(2S)-oxan-2-yl]-1,3-thiazol-2-yl}cyclobutane-1-carboxamide], the IC50 lay in the range of 1000 to 10000 nM.

For the compound `Cc1nc(NC(=O)[C@H]2C[C@H](NC#N)C2)sc1C1CCCCC1` [Compound 1-29, (1r,3r)-3-(cyanoamino)-N-(5-cyclohexyl-4-methyl-1,3-thiazol-2-yl)cyclobutane-1-carboxamide], the IC50 was under 100 nM.

As for `Cn1nc(NC(=O)[C@H]2C[C@H](NC#N)C2)cc1C1CCCCC1` [Compound 1-30, (1r,3r)-3-(cyanoamino)-N-(5-cyclohexyl-1-methyl-1H-pyrazol-3-yl)cyclobutane-1-carboxamide], the IC50 was in the range of 100 to 1000 nM.

Take `N#CN[C@H]1C[C@H](C(=O)Nc2nc(C(F)(F)F)c(C3CCCCC3)s2)C1` [Compound 1-31, (1r,3r)-3-(cyanoamino)-N-[5-cyclohexyl-4-(trifluoromethyl)-1,3-thiazol-2-yl]cyclobutane-1-carboxamide]: the IC50 is under 100 nM.

As for `N#CN[C@H]1C[C@H](C(=O)Nc2ncc([C@H]3CCCC[C@H]3C(F)(F)F)s2)C1` [Compound 1-32, (1r,3r)-3-(cyanoamino)-N-{5-[(1S,2R)-2-(trifluoromethyl)cyclo-hexyl]-1,3-thiazol-2-yl}cyclobutane-1-carboxamide], the IC50 was 100 to 1000 nM.

As for `N#CN[C@H]1C[C@H](C(=O)Nc2ncc([C@@H]3CCCC[C@@H]3C(F)(F)F)s2)C1` [Compound 1-33, (1r,3r)-3-(cyanoamino)-N-{5-[(1R,2S)-2-(trifluoromethyl)cyclo-hexyl]-1,3-thiazol-2-yl}cyclobutane-1-carboxamide], the IC50 lay in the range of 100 to 1000 nM.

As to `N#CN[C@H]1C[C@H](C(=O)Nc2ncc([C@H]3CCCC[C@@H]3C(F)(F)F)s2)C1` [Compound 1-34, (1r,3r)-3-(cyanoamino)-N-{5-[(1S,2S)-2-(trifluoromethyl)cyclo-hexyl]-1,3-thiazol-2-yl}cyclobutane-1-carboxamide], the IC50 lay within 100 to 1000 nM.

As for `N#CN[C@H]1C[C@H](C(=O)Nc2nc(Cl)c(C3CC3)s2)C1` [Compound 1-36, (1r,3r)-N-(4-chloro-5-cyclopropyl-1,3-thiazol-2-yl)-3-(cyanoamino)cyclo-butane-1-carboxamide], the IC50 is under 100 nM.

In the case of `N#CN[C@H]1C[C@H](C(=O)Nc2ncc([C@@H]3CC4CCC3CC4)s2)C1` [Compound 1-37, (1r,3r)-N-{5-[(2R)-bicyclo[2.2.2]octan-2-yl]-1,3-thiazol-2-yl}-3-(cyanoamino)cyclo-butane-1-carboxamide], the IC50 was under 100 nM.

As to `N#CN[C@H]1C[C@H](C(=O)Nc2ncc([C@H]3CC4CCC3CC4)s2)C1` [Compound 1-38, (1r,3r)-N-{5-[(2S)-bicyclo[2.2.2]octan-2-yl]-1,3-thiazol-2-yl}-3-(cyanoamino)cyclo-butane-1-carboxamide], the IC50 fell in the range of 100 to 1000 nM.

As to `N#CN[C@H]1C[C@H](C(=O)Nc2cc(Cl)n(C3CCCCC3)n2)C1` [Compound 1-39, (1r,3r)-N-(5-chloro-1-cyclohexyl-1H-pyrazo1-3-yl)-3-(cyanoamino)cyclo-butane-1-carboxamide], the IC50 lay in the range of 100 to 1000 nM.

With `N#CN[C@H]1C[C@H](C(=O)Nc2ncc(-c3cccc(C#N)c3)s2)C1` [Compound 1-40, (1r,3r)-3-(cyanoamino)-N-[5-(3-cyanophenyl)-1,3-thiazol-2-yl]cyclobutane-1-carboxamide], the IC50 was 100 to 1000 nM.

As to `N#CN[C@H]1C[C@H](C(=O)Nc2cc(-c3cccc(Cl)c3)no2)C1` [Compound 1-41, (1r,3r)-N-[3-(3-chlorophenyl)-1,2-oxazol-5-yl]-3-(cyanoamino)cyclo-butane-1-carboxamide], the IC50 is 100 to 1000 nM.

Regarding `N#CN[C@H]1C[C@H](C(=O)Nc2cc(-c3cccc(Cl)c3)on2)C1` [Compound 1-43, (1r,3r)-N-[5-(3-chlorophenyl)-1,2-oxazol-3-yl]-3-(cyanoamino)cyclo-butane-1-carboxamide], the IC50 was 100 to 1000 nM.

As for `C[C@]1(C(=O)Nc2nc(Cl)c(C3CCCCC3)s2)C[C@H](NC#N)C1` [Compound 1-44, (1r,3s)-N-(4-chloro-5-cyclohexyl-1,3-thiazol-2-yl)-3-(cyanoamino)-1-methylcyclobutane-1-carboxamide], the IC50 is under 100 nM.

`CN(c1cc(-c2cccc(Cl)c2)no1)C(=O)[C@H]1C[C@H](NC#N)C1` [Compound 1-45, (1r,3r)-N-[3-(3-chlorophenyl)-1,2-oxazol-5-yl]-3-(cyanoamino)-N-methylcyclobutane-1-carboxamide]: the IC50 lay in the range of 100 to 1000 nM.

As to `CCC1(C(=O)Nc2cnc(C3CCCCC3)s2)CC(NC#N)C1` (stereo not drawn) [Compound 1-46, (1r,3s)-3-(cyanoamino)-N-(2-cyclohexyl-1,3-thiazol-5-yl)-1-ethylcyclobutane-1-carboxamide], the IC50 was in the range of 100 to 1000 nM.

Turning to `N#CN[C@H]1C[C@](F)(C(=O)Nc2nc(Cl)c(C3CCCCC3)s2)C1` [Compound 1-47, (1s,3s)-N-(4-chloro-5-cyclohexyl-1,3-thiazol-2-yl)-3-(cyanoamino)-1-fluorocyclobutane-1-carboxamide], the IC50 was 100 to 1000 nM.

As for `N#CN[C@H]1C[C@@](F)(C(=O)Nc2nc(Cl)c(C3CCCCC3)s2)C1` [Compound 1-48, (1r,3r)-N-(4-chloro-5-cyclohexyl-1,3-thiazol-2-yl)-3-(cyanoamino)-1-fluorocyclobutane-1-carboxamide], the IC50 was under 100 nM.

With `CN(c1nc(Cl)c(C2CCCCC2)s1)C(=O)[C@H]1C[C@H](NC#N)C1` [Compound 1-49, (1r,3r)-N-(4-chloro-5-cyclohexyl-1,3-thiazol-2-yl)-3-(cyanoamino)-N-methylclycobutane-1-carboxamide], the IC50 was under 100 nM.

Consider `CN(c1nc(Cl)c(C(C)(C)C)s1)C(=O)[C@H]1C[C@H](NC#N)C1` [Compound 1-50, (1r,3r)-N-(5-tert-butyl-4-chloro-1,3-thiazol-2-yl)-3-(cyanoamino)-N-methylcyclobutane-1-carboxamide], for which the IC50 was under 100 nM.

With `N#CN[C@H]1C[C@H](C(=O)Nc2cc(-c3cccc(C#N)c3)no2)C1` [Compound 1-51, (1r,3r)-3-(cyanoamino)-N-[3-(3-cyanophenyl)-1,2-oxazol-5-yl]cyclobutane-1-carboxamide], the IC50 lay in the range of 100 to 1000 nM.
